Where a name gives a salt, the structure may show the parent alone. Read-outs that look alike come from different tables or passages of the source. Where a SMILES comes first, the peptide text is derived from it. The star is where a group is joined. Cbz = O=C(OCc1ccccc1)*
Assays:
[1] = tested on: HeLa; assay: Cell viability after 48-hr treatment (Table 1); type: cell-based, human; conditions: for IC50: read-out: IC50, HeLa; for potency in cell killing and polyubiquitin accumulation / functional assays relative to RA190: HeLa cells, FIGS. 1I, 9I, 10A-10C
Method: (§1) Cell viability was assayed using CellTiter 960 AQueous One Solution Reagent (Promega, Madison, Wis.). Cells seeded at the concentration of 1,000 cells/well for HeLa, 5,000 cells/well for ES2 and HCT116 and 10,000-20,000 cells/well for other cell lines in 100 μL medium in 96-well plate were treated with RA series compounds at specified concentrations. […]

[2] = tested on: OVCAR3; assay: Cell viability after 48-hr treatment (Table 1); type: cell-based, human; conditions: XTT assay
Method: as §1

[3] = tested on: CasKi; assay: Cell viability after 48-hr treatment (Table 1); type: cell-based; conditions: read-out: IC50, CasKi
Method: (§2) Cell viability was assayed using CellTiter 960 AQueous One Solution Reagent (Promega, Madison, Wis.). Cells seeded at the concentration of 1,000 cells/well for HeLa, 5,000 cells/well for ES2 and HCT116 and 10,000-20,000 cells/well for other cell lines in 100 μL medium in 96-well plate were treated with RA series compounds at specified concentrations. After the indicated periods, cells were incubated according to the manufacturer's protocol with the MTS labeling mixture for 1-2 hr and absorbance at 490 nm measured using a Benchmark Plus microplate spectrophotometer (BIO-RAD).

[4] = tested on: HOK-16B; assay: Cell viability after 48-hr treatment (Table 1); type: cell-based; conditions: read-out: IC50, HOK-16B
Method: as §2

[5] = tested on: HT3; assay: Cell viability after 48-hr treatment (Table 1); type: cell-based; conditions: read-out: IC50, HT3
Method: (§3) Cells seeded at the concentration of 1,000 cells/well for HeLa, 5,000 cells/well for ES2 and HCT116 and 10,000-20,000 cells/well for other cell lines in 100 μL medium in 96-well plate were treated with RA series compounds at specified concentrations. […]

[6] = tested on: HaCaT; assay: Cell viability after 48-hr treatment (Table 1); type: cell-based; conditions: read-out: IC50, HaCaT
Method: as §3

[7] = tested on: SiHa; assay: Cell viability after 48-hr treatment (Table 1); type: cell-based; conditions: read-out: IC50, SiHa
Method: as §3

[8] = tested on: C33A; assay: Cell viability after 48-hr treatment (Table 1); type: cell-based; conditions: read-out: IC50, C33A
Method: as §1

[9] = tested on: FaDu; assay: Cell viability after 48-hr treatment (Table 1); type: cell-based; conditions: read-out: IC50, FaDu
Method: as §1

[10] = tested on: SKOV3; assay: Cell viability after 48-hr treatment (Table 1); type: cell-based; conditions: read-out: IC50, SKOV3
Method: as §1

[11] = target: T1, RPN13 (Homo sapiens, UniProt Q16186); assay: Biotin labeling assay; type: binding; conditions: cell lysate or purified RP, streptavidin-peroxidase blot
T1 construct: endogenous in cells; host or cells: HeLa, HS578T cell lysate
Method: FIGS. 10 A-10E show a series of graphs and immunoblots showing the effects of several compounds on cell viability and proteasome activity. […] 10B and 10C show immunoblots of the proteasome activity of cell lines treated with the indicated compounds. […] IC50 values were determined in triplicate. In FIG. 10B, HeLa cells were treated for 12 hr and the cell lysate was subjected to immunoblot analysis with anti-Ubiquitin antibody. In FIG. 10C, SiHa cells were treated with the indicated compounds for 12 hr and the lysate subjected to Western blot analysis with anti-Ubiquitin antibody. HeLa cell lysate was treated with RA190B, subjected to SDS-PAGE, and probed with streptavidin-peroxidase following protein transfer to a polyvinylidene difluoride (PVDF) membrane. The streptavidin-peroxidase bound to biotinylated cellular proteins, but a striking new band at 42 kDa appeared in RA190B-treated samples (FIG. 2A). […] IC50 values were determined in triplicate.
To eliminate the possibility that another RP component was required for RA190B interaction, RPN13 or an irrelevant protein (L2) was overexpressed in bacteria. Cell lysate harvested from bacteria either with or without […] induction of ectopic protein expression was labeled with RA190B and probed by blotting with streptavidin-peroxidase. RA190B reacted strongly with a 42 kDa protein only in lysates of bacteria expressing RPN13 (FIG. 2D). […] 800 μL fractions were collected and alternate fractions (1,3,5,7,9,11,13,15,17) were analyzed for the presence of proteasomal proteins (RPN13, RPN2, RPN1 and UCH37) by Western blot analysis.
Human cells (5×10^6 HeLa or 293TT cells) were lysed using MPER (Pierce) lysis buffer (500 μL). RPN13 or HPV L2 transformed bacterial cells (500 μL of culture) were centrifuged to harvest the cells which were re-suspended in 500 μL BPER (Pierce). Cell lysates were centrifuged at 10,000 rpm briefly (2 min) at 4° C. to remove cell debris. Lysate supernatant (200 μL) was pre cleared with streptavidin dyna beads (20 μL) for 1 h at 4° C. to remove non-specific biotin binding and incubated with compounds (indicated concentrations or 20 μM) at 4° C. for 1 hr. An equal amount of each sample (20 μL of lysate) was mixed with an equal volume of Laemmli sample buffer (20 μL) (BioRad) and was boiled for 5 min. […] (24 V). Membrane was blocked with 5% BSA in PBST for 1 hr at room temperature and washed for 20 min (3×PBST). Then the membrane was probed with HRP-streptavidin (1:10,000 in PBST) for 1 hr at room temperature and washed for 30 min (3×PBST) and developed using HyGLO chemiluminescent detection reagent (Denville) for biotin recognition. For the purified enzyme assay, 19S purified proteasome (R&D Systems, Cat. No. E-366) (500 ng) in 19S buffer (20 mM HEPES, 20 mM NaCl, 1 mM DTT, 15% Glycerol) was incubated with compounds (20 μM) for 1 hr at room temperature and mixed with an equal volume of Laemmli sample buffer (20 μL) (BioRad) and was boiled for 5 min. Each sample was loaded onto gel and followed the western blot protocol mentioned above.
Purified 19S proteasome (500 ng) was incubated with corresponding compounds for 30 min and subjected to immunoblot and probed with HRP-conjugated streptavidin. In FIG. 23, the single band at 42 KDa indicates Rpn13 binding to 195. RA183B (20 μM) is used as positive control for Rpn13 binding. Competition experiments were done with RA183 (100 μM) and RA195 (100 μM) along with RA195B (20 μM).

[12] = tested on: cancer cells; assay: Antiproliferative activity against cancer cells (design rationale); type: cell-based
Description: We used Chloro and Nitro functional groups as substituent's on the aromatic ring due to their greater electron withdrawing effect at ortho (or) para (or) meta (or) both positions along with different amino acid linkages on bis-benzylidine piperidone moiety. Amino acids were chosen based in their physical characteristics like very hydrophobic (phenylalanine), strongly basic and hydrophilic (lysine), basic and hydrophilic (histidine) and amphiphilic (glycine). Commercially available Fmoc and Boc protected amino acids were used in the synthesis, and they were evaluated for their antiproliferatory activity against cancer cells.
Next we synthesized another set of compounds by converting free amine functionality to its Acetate (Ac), Acrolyl (Acr) and Benzoyl […] analogs as these units are part of many anticancer drugs because of their smaller size and feasibility to form inter molecular hydrogen bonds with proteins.
In the RA195 molecule two amino functionalities of lysine can provide more flexibility to make better analogs.

T1 sequence (Q16186 whole entry): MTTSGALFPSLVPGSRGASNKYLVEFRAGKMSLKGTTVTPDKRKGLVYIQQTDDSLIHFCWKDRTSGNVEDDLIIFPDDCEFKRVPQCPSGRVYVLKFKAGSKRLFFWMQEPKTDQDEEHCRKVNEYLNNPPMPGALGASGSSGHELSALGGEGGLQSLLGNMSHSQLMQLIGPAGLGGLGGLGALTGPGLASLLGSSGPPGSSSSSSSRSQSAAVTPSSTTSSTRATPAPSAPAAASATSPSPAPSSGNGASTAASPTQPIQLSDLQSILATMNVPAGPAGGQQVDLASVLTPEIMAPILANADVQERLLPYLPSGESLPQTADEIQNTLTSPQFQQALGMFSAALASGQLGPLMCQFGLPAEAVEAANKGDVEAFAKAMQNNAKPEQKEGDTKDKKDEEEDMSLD

Compound | IC50 ([1]; 48-hr treatment, XTT assay) [µM] | IC50 [2] [µM] | IC50 ([3]; 48-hr treatment, XTT assay) [µM] | IC50 ([4]; 48-hr treatment, XTT assay) [µM] | IC50 ([5]; 48-hr treatment, XTT assay) [µM] | IC50 ([6]; 48-hr treatment, XTT assay) [µM] | IC50 ([7]; 48-hr treatment, XTT assay) [µM] | IC50 ([8]; 48-hr treatment, XTT assay) [µM] | IC50 ([9]; 48-hr treatment, XTT assay) [µM] | IC50 ([10]; 48-hr treatment, XTT assay) [µM] | potency in cell killing and polyubiquitin accumulation / functional assays relative to RA190 [1] | further results
3,5-bis(3,4-dichlorobenzylidene)-1-(S-2-amino-3-(4-hydroxy)-phenyl)-piperidin-4-one HCl salt [RA213] | 0.6 | > 5 | 0.6 | 1.5 | > 5 | > 2.5 | 2.5 | > 5 | > 5 | > 2.5 |  | 
CC(C)C[C@@H](C=O)NC(=O)[C@H](CC(C)C)NC(=O)[C@H](CC(C)C)NC(=O)OCc1ccccc1 [MG132, reference compound] (Cbz-Leu-Leu-Leu-aldehyde) |  |  |  |  |  |  |  |  |  |  |  | IC50 ([1]; Homo sapiens, HeLa, 48 h): 0.75 µM; IC50 ([3]; Homo sapiens, Ca-Ski, 48 h): 0.5 µM; IC50 ([4]; 48 h): 0.7 µM; IC50 ([5]; Homo sapiens, HT-3, 48 h): > 5 µM; IC50 ([6]; Homo sapiens, HaCaT, 48 h): > 2.5 µM; IC50 ([7]; Homo sapiens, SiHa, 48 h): 2 µM; IC50 ([8]; Homo sapiens, C-33-A, 48 h): > 5 µM; IC50 ([9]; Homo sapiens, FaDu, 48 h): > 2.5 µM; IC50 ([10]; Homo sapiens, SK-OV-3, 48 h): > 2.5 µM
N[C@@H](Cc1ccccc1)C(=O)N1CC(=Cc2ccccc2Cl)C(=O)C(=Cc2ccccc2Cl)C1 [RA166, 3,5-bis(2-chlorobenzylidene)-1-(S-2-amino-3-phenyl)-piperidin-4-one-HCl salt] | 0.6 | > 5 | 1.5 | > 5 | > 5 | > 2.5 | 2 | > 5 | > 5 | > 2.5 |  | 
N[C@@H](Cc1ccccc1)C(=O)N1CC(=Cc2ccccc2)C(=O)C(=Cc2ccccc2)C1 [RA181, 3,5-dibenzylidene-1-(S-2-amino-3-phenyl)-piperidin-4-one-HCl salt] | 0.35 | > 5 | 2 | > 5 | > 5 | > 2.5 | 2 | > 5 | > 5 | > 2.5 |  | 
O=C(CCCC[C@@H]1SCC2NC(=O)NC21)N[C@@H](Cc1ccccc1)C(=O)N1C/C(=C\c2ccc(Cl)c(Cl)c2)C(=O)/C(=C/c2ccc(Cl)c(Cl)c2)C1 (stereo partly shown) [RA190B] |  |  |  |  |  |  |  |  |  |  | did not affect its potency | labeling of / competition for RPN13 (42 kDa band) [11]: bound to the 42 kDa protein
Cl.NC(Cc1ccccc1)C(=O)N1C/C(=C\c2ccc(Cl)c(Cl)c2)C(=O)/C(=C/c2ccc(Cl)c(Cl)c2)C1 (stereo not shown) [RA190D] |  |  |  |  |  |  |  |  |  |  |  | antiproliferative potency among analogs [12]: Neither of these compounds was as good as RA190
Cl.N[C@@H](Cc1ccccc1)C(=O)N1CC(C(SCCO)c2ccc(Cl)c(Cl)c2)C(=O)C(C(SCCO)c2ccc(Cl)c(Cl)c2)C1 (stereo partly shown) [RA190ME, 3,5-bis((2-hydroxyethylthio)(3,4-dichlorophenyl)methyl)-1-(S-2-amino-3-phenyl)-piperidin-4-one-HCl salt] |  |  |  |  |  |  |  |  |  |  | significantly reduced its potency | 
N[C@@H](Cc1ccccc1)C(=O)N1C/C(=C\c2ccc(Cl)c(Cl)c2)C(=NO)/C(=C/c2ccc(Cl)c(Cl)c2)C1 [RA190O] |  |  |  |  |  |  |  |  |  |  | dramatically reduced activity | 
O=C1/C(=C/c2ccc(Cl)c(Cl)c2)CN(C(=O)[C@H](Cc2ccccc2)NC(=O)c2ccccn2)C/C1=C\c1ccc(Cl)c(Cl)c1 [RA190P] |  |  |  |  |  |  |  |  |  |  |  | antiproliferative potency among analogs [12]: Neither of these compounds was as good as RA190
N[C@@H](Cc1ccccc1)C(=O)N1CC(Cc2ccc(Cl)c(Cl)c2)C(O)C(Cc2ccc(Cl)c(Cl)c2)C1 (stereo partly shown) [RA190R] |  |  |  |  |  |  |  |  |  |  | dramatically reduced activity | 
O=C(CCCC[C@@H]1SCC2NC(=O)NC21)NCCCC[C@H](NC(=O)OCC1c2ccccc2-c2ccccc21)C(=O)N1C/C(=C\c2ccc(Cl)c(Cl)c2)C(=O)/C(=C/c2ccc(Cl)c(Cl)c2)C1 (stereo partly shown) [RA195B] |  |  |  |  |  |  |  |  |  |  |  | labeling of / competition for RPN13 (42 kDa band) [11]: labels HeLa cell lysate at 42 KDa
N[C@@H](Cc1c[nH]cn1)C(=O)N1CC(=Cc2ccc(Cl)c(Cl)c2)C(=O)C(=Cc2ccc(Cl)c(Cl)c2)C1 [RA196, 3,5-bis(3,4-dichlorobenzylidene)-1-(S-1H-imidazol-4-yl) piperidin-4-one di HCl salt] | 0.6 | 2.5 | 1 | 3 | > 5 | > 2.5 | 2 | > 5 | > 5 | > 2.5 |  | 
N[C@@H](Cc1ccccc1)C(=O)N1CC(=Cc2ccccc2F)C(=O)C(=Cc2ccccc2F)C1 [RA201, 3,5-bis(2-fluorobenzylidene)-1-(S-2-amino-3-phenyl)-piperidin-4-one-HCl salt] | 0.35 | > 5 | 2.5 | 1.5 | > 5 | > 2.5 | 2 | > 5 | > 5 | > 2.5 |  | 

Source: patent US10500198B2, “Bis-benzylidine piperidone proteasome inhibitor with anticancer activity” (The Johns Hopkins University, priority 2013, dated 2019)
